Test results taken from PubChem BioAssay AID1845207 (Molecular Pharmacology Branch, DTP, NCI, 2023).

System: NCI-H1876 tumor spheroid viability
Assay: Anticancer human tumor NCI-H1876 cell line growth inhibition;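 also: spheroids exposed to compounds for seven days before the viability read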;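 as to viability, T/C: percent of DMSO vehicle control viability so 100% = vehicle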
Settings: spheroids with HUVEC and MSC; for IC50: curve of first compound; for viability, T/C: stronger effect = lower value
In short: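 Single agents and combinations were tested on spheroids built from tumor cells plus HUVEC and hMSC, at half-log dilutions starting at or near clinical Cmax, else 10 microM; final DMSO 0.25% (v/v).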

[1] = second compound 30 pM, first compound 0.0316 µM
[2] = second compound 30 pM, first compound 0.1 µM
[3] = second compound 30 pM, first compound 0.316 µM
[4] = second compound 30 pM, first compound 1 µM
[5] = second compound 30 pM, first compound 3.16 µM
[6] = second compound 30 pM, first compound 10 µM
[7] = second compound 94.9 pM, first compound 0.0316 µM
[8] = second compound 94.9 pM, first compound 0.1 µM
[9] = second compound 94.9 pM, first compound 0.316 µM
[10] = second compound 94.9 pM, first compound 1 µM
[11] = second compound 94.9 pM, first compound 3.16 µM
[12] = second compound 94.9 pM, first compound 10 µM
[13] = second compound 0.0003 µM, first compound 0.0316 µM
[14] = second compound 0.0003 µM, first compound 0.1 µM
[15] = second compound 0.0003 µM, first compound 0.316 µM
[16] = second compound 0.0003 µM, first compound 1 µM
[17] = second compound 0.0003 µM, first compound 3.16 µM
[18] = second compound 0.0003 µM, first compound 10 µM
[19] = second compound 0.000949 µM, first compound 0.0316 µM
[20] = second compound 0.000949 µM, first compound 0.1 µM
[21] = second compound 0.000949 µM, first compound 0.316 µM
[22] = second compound 0.000949 µM, first compound 1 µM
[23] = second compound 0.000949 µM, first compound 3.16 µM
[24] = second compound 0.000949 µM, first compound 10 µM
[25] = second compound 0.003 µM, first compound 0.0316 µM
[26] = second compound 0.003 µM, first compound 0.1 µM
[27] = second compound 0.003 µM, first compound 0.316 µM
[28] = second compound 0.003 µM, first compound 1 µM
[29] = second compound 0.003 µM, first compound 3.16 µM
[30] = second compound 0.003 µM, first compound 10 µM

| Structure (SMILES) | IC50 (second compound 30 pM) | IC50 (second compound 94.9 pM) | IC50 (second compound 0.0003 µM) | IC50 (second compound 0.000949 µM) | IC50 (second compound 0.003 µM) | viability, T/C [1] | viability, T/C [2] | viability, T/C [3] | viability, T/C [4] | viability, T/C [5] | viability, T/C [6] | viability, T/C [7] | viability, T/C [8] | viability, T/C [9] | viability, T/C [10] | viability, T/C [11] | viability, T/C [12] | viability, T/C [13] | viability, T/C [14] | viability, T/C [15] | also measured |
| --- | --- | --- | --- | --- | --- | --- | --- | --- | --- | --- | --- | --- | --- | --- | --- | --- | --- | --- | --- | --- | --- |
| CC(C)n1c(=O)n(C)c2cnc3cc(F)c(-c4ccc(OCCCN5CCCCC5)nc4)cc3c21 + COc1cc2c(cc1O)CCNC21CSC2c3c(OC(C)=O)c(C)c4c(c3C(COC1=O)N1C(O)C3Cc5cc(C)c(OC)c(O)c5C(C21)N3C)OCO4 | > 10000 nM | > 10000 nM | < 31.6 nM | < 31.6 nM | < 31.6 nM | 94% | 93.1% | 95% | 95.5% | 93.7% | 86.7% | 66.3% | 58.5% | 49.3% | 53.5% | 55.2% | 46.8% | 10.7% | 9.04% | 11% | viability, T/C [16]: 9.85%; viability, T/C [17]: 12.3%; viability, T/C [18]: 9.65%; viability, T/C [19]: 2.08%; viability, T/C [20]: 1.93%; viability, T/C [21]: 1.77%; viability, T/C [22]: 1.8%; viability, T/C [23]: 2.69%; viability, T/C [24]: 2.47%; viability, T/C [25]: 0.9%; viability, T/C [26]: 0.67%; viability, T/C [27]: 0.58%; viability, T/C [28]: 0.77%; viability, T/C [29]: 0.63%; viability, T/C [30]: 1.09% |
| CC1COCCN1c1cc(-c2ccnn2C)c2ccnc(-c3ccn[nH]3)c2n1 (stereo not given) + COc1cc2c(cc1O)CCNC21CSC2c3c(OC(C)=O)c(C)c4c(c3C(COC1=O)N1C(O)C3Cc5cc(C)c(OC)c(O)c5C(C21)N3C)OCO4 | < 31.6 nM | < 31.6 nM | < 31.6 nM | < 31.6 nM | < 31.6 nM | 30.7% | 17.9% | 11.3% | 4.58% | 3.01% | 2.83% | 17.4% | 10.3% | 6.18% | 3.39% | 2.3% | 2.27% | 5.4% | 4.29% | 2.95% | viability, T/C [16]: 2.33%; viability, T/C [17]: 2.39%; viability, T/C [18]: 2.2%; viability, T/C [19]: 2.56%; viability, T/C [20]: 2.32%; viability, T/C [21]: 1.67%; viability, T/C [22]: 1.48%; viability, T/C [23]: 1.48%; viability, T/C [24]: 2.04%; viability, T/C [25]: 0.92%; viability, T/C [26]: 1.05%; viability, T/C [27]: 0.72%; viability, T/C [28]: 0.9%; viability, T/C [29]: 0.88%; viability, T/C [30]: 0.28% |
| COc1cc(C)[nH]c(=O)c1CN1CCc2c(Cl)cc(C(OC)C3COC3)c(Cl)c2C1=O (stereo not given) + COc1cc2c(cc1O)CCNC21CSC2c3c(OC(C)=O)c(C)c4c(c3C(COC1=O)N1C(O)C3Cc5cc(C)c(OC)c(O)c5C(C21)N3C)OCO4 | > 10000 nM | > 10000 nM | < 31.6 nM | < 31.6 nM | < 31.6 nM | 99.7% | 104% | 96.9% | 97.6% | 94.5% | 90.5% | 91.6% | 89.6% | 89.5% | 86.9% | 81.9% | 76.7% | 22% | 21.2% | 23.9% | viability, T/C [16]: 20.5%; viability, T/C [17]: 19.1%; viability, T/C [18]: 14%; viability, T/C [19]: 2.52%; viability, T/C [20]: 2.44%; viability, T/C [21]: 2.38%; viability, T/C [22]: 2.44%; viability, T/C [23]: 2.06%; viability, T/C [24]: 2.03%; viability, T/C [25]: 0.75%; viability, T/C [26]: 0.84%; viability, T/C [27]: 0.98%; viability, T/C [28]: 0.57%; viability, T/C [29]: 0.7%; viability, T/C [30]: 0.93% |
| COc1ccc([C@@H](O)c2cc(-c3ncnc4cc(N5CCOCC5)ccc34)c(F)cc2Cl)nn1 + COc1cc2c(cc1O)CCNC21CSC2c3c(OC(C)=O)c(C)c4c(c3C(COC1=O)N1C(O)C3Cc5cc(C)c(OC)c(O)c5C(C21)N3C)OCO4 | 2540 nM | 778 nM | < 31.6 nM | < 31.6 nM | < 31.6 nM | 104% | 102% | 99.5% | 92% | 40.2% | 8.98% | 93% | 87.6% | 78% | 41.5% | 16.1% | 5.87% | 20.7% | 20.1% | 15.1% | viability, T/C [16]: 7.3%; viability, T/C [17]: 2.15%; viability, T/C [18]: 2.31%; viability, T/C [19]: 2.44%; viability, T/C [20]: 2.76%; viability, T/C [21]: 3.13%; viability, T/C [22]: 1.08%; viability, T/C [23]: 0.81%; viability, T/C [24]: 0.98%; viability, T/C [25]: 0.93%; viability, T/C [26]: 0.67%; viability, T/C [27]: 0.53%; viability, T/C [28]: 0.63%; viability, T/C [29]: 0.36%; viability, T/C [30]: 0.33% |
| [2H]c1nc(C)nc([2H])c1-c1cc(NC[C@@H](C)c2cccc3c(C(=O)NC)ccnc23)ncn1 + COc1cc2c(cc1O)CCNC21CSC2c3c(OC(C)=O)c(C)c4c(c3C(COC1=O)N1C(O)C3Cc5cc(C)c(OC)c(O)c5C(C21)N3C)OCO4 | > 10000 nM | > 10000 nM | < 31.6 nM | < 31.6 nM | < 31.6 nM | 102% | 101% | 101% | 101% | 100% | 98% | 90.8% | 94.2% | 94.6% | 94.5% | 93.9% | 85.7% | 31% | 32.2% | 35.5% | viability, T/C [16]: 30%; viability, T/C [17]: 31.6%; viability, T/C [18]: 21.6%; viability, T/C [19]: 3.38%; viability, T/C [20]: 2.4%; viability, T/C [21]: 2.32%; viability, T/C [22]: 2.39%; viability, T/C [23]: 2.46%; viability, T/C [24]: 3.2%; viability, T/C [25]: 0.5%; viability, T/C [26]: 0.64%; viability, T/C [27]: 0.5%; viability, T/C [28]: 0.66%; viability, T/C [29]: 0.74%; viability, T/C [30]: 0.7% |
